Laboratory results as given in US12673944B2, “Compounds having inhibitory activity against glucosylceramide synthase or pharmaceutically acceptable salt thereof, processes for preparing the same, and pharmaceutical compositions comprising the same” (YUHAN CORPORATION, priority 2019, dated 2026).

How the values were obtained:
[1] = molecular target: T1, glucosylceramide synthase (GCS) (Homo sapiens, UniProt Q16739); experiment: GCS enzyme inhibition assay (A549 cell lysate, NBD C6-ceramide, HPLC fluorescence); assay type: biochemical; conditions: inhibitory activity against GCS, 37° C., 90 minutes
T1 construct: The obtained supernatant was used; host or cells: A549 cells (lysate supernatant after sonication)
T1 sequence (Q16739 1-394): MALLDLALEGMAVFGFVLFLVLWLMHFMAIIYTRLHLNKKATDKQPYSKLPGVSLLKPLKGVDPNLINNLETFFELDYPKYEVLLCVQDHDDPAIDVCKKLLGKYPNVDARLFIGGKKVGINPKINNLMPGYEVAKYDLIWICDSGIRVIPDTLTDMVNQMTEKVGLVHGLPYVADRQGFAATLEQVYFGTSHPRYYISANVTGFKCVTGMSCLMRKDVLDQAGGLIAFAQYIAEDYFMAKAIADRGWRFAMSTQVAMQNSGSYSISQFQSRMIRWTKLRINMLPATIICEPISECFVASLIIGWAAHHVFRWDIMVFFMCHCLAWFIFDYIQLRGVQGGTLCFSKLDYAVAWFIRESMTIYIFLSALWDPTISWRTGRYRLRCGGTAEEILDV
In short: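 A549 cell lysate (50 mM HEPES pH 7.3) served as GCS source; reactions ran 90 min at 37° C, were stopped with chloroform/methanol and lipids extracted. Activity taken as GlcCer/(Cer+GlcCer) peak area, normalised between DMSO and ibiglustat controls.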

[2] = system: GM1 production in Jurkat cells; experiment: cells; assay type: cell-based; conditions: Homo sapiens, Jurkat, 72 h

| Structure (SMILES) | IC50 [1] | IC50 [2] |
| --- | --- | --- |
| COc1ccc(-c2ccc3c(c2)OCC(C)(C)C3NC(=O)O[C@@H]2CN3CCC2CC3)cc1OC (stereo partly drawn) [Example 128, (S)-quinuclidin-3-yl (7-(3,4-dimethoxyphenyl)-3,3-dimethylchroman-4-yl)carbamate] | 2.84 nM | 23.2 nM |
| COc1ccc(-c2ccc3c(c2)OCC(C)(C)C3NC(=O)O[C@@H]2CN3CCC2CC3)c(OC)n1 (stereo partly drawn) [Example 129, (S)-quinuclidin-3-yl (7-(2,6-dimethoxypyridin-3-yl)-3,3-dimethylchroman-4-yl)carbamate] | 1.15 nM | 4.56 nM |
| CC1(C)COc2cc(-c3ccc4ccccc4c3)ccc2C1NC(=O)O[C@@H]1CN2CCC1CC2 (stereo partly drawn) [Example 130, (S)-quinuclidin-3-yl (3,3-dimethyl-7-(naphthalen-2-yl)chroman-4-yl)carbamate] | 0.71 nM | 1.4 nM |
| CC1(C)COc2cc(-c3cccc4ccccc34)ccc2C1NC(=O)O[C@@H]1CN2CCC1CC2 (stereo partly drawn) [Example 131, (S)-quinuclidin-3-yl (3,3-dimethyl-7-(naphthalen-1-yl)chroman-4-yl)carbamate] | 1.02 nM | 1.21 nM |
| CC1(C)COc2cc(-c3ccc4ncccc4c3)ccc2C1NC(=O)O[C@@H]1CN2CCC1CC2 (stereo partly drawn) [Example 132, (S)-quinuclidin-3-yl (3,3-dimethyl-7-(quinolin-6-yl)chroman-4-yl)carbamate] | 1.55 nM | 8.95 nM |
| CCOc1c(C)cc(-c2ccc3c(c2)OCC(C)(C)C3NC(=O)O[C@@H]2CN3CCC2CC3)cc1C (stereo partly drawn) [Example 133, (S)-quinuclidin-3-yl (7-(4-ethoxy-3,5-dimethylphenyl)-3,3-dimethylchroman-4-yl)carbamate] | 1.35 nM | 0.1 nM |
| CCOc1cc(-c2ccc3c(c2)OCC(C)(C)C3NC(=O)O[C@@H]2CN3CCC2CC3)c(Cl)cc1Cl (stereo partly drawn) [Example 134, (S)-quinuclidin-3-yl (7-(2,4-dichloro-5-ethoxyphenyl)-3,3-dimethylchroman-4-yl)carbamate] | 2.83 nM | 12.7 nM |
| CC(C)Oc1ccc(F)c(-c2ccc3c(c2)OCC(C)(C)C3NC(=O)O[C@@H]2CN3CCC2CC3)c1 (stereo partly drawn) [Example 135, (S)-quinuclidin-3-yl (7-(2-fluoro-5-isopropoxyphenyl)-3,3-dimethylchroman-4-yl)carbamate] | 0.44 nM | 3.46 nM |
| CC(C)Oc1cc(F)cc(-c2ccc3c(c2)OCC(C)(C)C3NC(=O)O[C@@H]2CN3CCC2CC3)c1 (stereo partly drawn) [Example 136, (S)-quinuclidin-3-yl (7-(3-fluoro-5-isopropoxyphenyl)-3,3-dimethylchroman-4-yl)carbamate] | 0.61 nM | 2.73 nM |
| CC1(C)COc2cc(-c3ccc(C(F)(F)F)cc3Cl)ccc2C1NC(=O)O[C@@H]1CN2CCC1CC2 (stereo partly drawn) [Example 137, (S)-quinuclidin-3-yl (7-(2-chloro-4-(trifluoromethyl)phenyl)-3,3-dimethylchroman-4-yl)carbamate] | 0.62 nM | 0.11 nM |
| CC1(C)COc2cc(-c3cccc(C(F)(F)F)c3Cl)ccc2C1NC(=O)O[C@@H]1CN2CCC1CC2 (stereo partly drawn) [Example 138, (S)-quinuclidin-3-yl (7-(2-chloro-3-(trifluoromethyl)phenyl)-3,3-dimethylchroman-4-yl)carbamate] | 0.63 nM | 1.57 nM |
| CC1(C)COc2cc(-c3cc(C(F)(F)F)ccc3Cl)ccc2C1NC(=O)O[C@@H]1CN2CCC1CC2 (stereo partly drawn) [Example 139, (S)-quinuclidin-3-yl (7-(2-chloro-5-(trifluoromethyl)phenyl)-3,3-dimethylchroman-4-yl)carbamate] | 0.62 nM | 0.3 nM |
| CCCOc1c(C)cc(-c2ccc3c(c2)OCC(C)(C)C3NC(=O)O[C@@H]2CN3CCC2CC3)cc1C (stereo partly drawn) [Example 140, (S)-quinuclidin-3-yl (7-(3,5-dimethyl-4-propoxyphenyl)-3,3-dimethylchroman-4-yl)carbamate] | 0.88 nM | 0.15 nM |
| CC(C)(C)OCc1ccc(-c2ccc3c(c2)OCC(C)(C)C3NC(=O)O[C@@H]2CN3CCC2CC3)cc1 (stereo partly drawn) [Example 141, (S)-quinuclidin-3-yl (7-(4-(tert-butoxymethyl)phenyl)-3,3-dimethylchroman-4-yl)carbamate] | 0.19 nM | 0.2 nM |
| CC1(C)COc2cc(-c3cc(OC(F)(F)F)ccc3Cl)ccc2C1NC(=O)O[C@@H]1CN2CCC1CC2 (stereo partly drawn) [Example 142, (S)-quinuclidin-3-yl (7-(2-chloro-5-(trifluoromethoxy)phenyl)-3,3-dimethylchroman-4-yl)carbamate] | 0.67 nM | 0.19 nM |
| CCCCOc1cccc(F)c1-c1ccc2c(c1)OCC(C)(C)C2NC(=O)O[C@@H]1CN2CCC1CC2 (stereo partly drawn) [Example 143, (S)-quinuclidin-3-yl (7-(2-butoxy-6-fluorophenyl)-3,3-dimethylchroman-4-yl)carbamate] | 0.78 nM | 1.46 nM |

| Structure (SMILES) | IC50 [1] | IC50 [2] |
| --- | --- | --- |
| CC1(C)COc2cc(-c3ccc(OCC(F)(F)F)nc3)ccc2C1NC(=O)O[C@@H]1CN2CCC1CC2 (stereo partly drawn) [Example 144, (S)-quinuclidin-3-yl (3,3-dimethyl-7-(6-(2,2,2-trifluoroethoxy)pyridin-3-yl)chroman-4-yl)carbamate] | 0.17 nM | 1.2 nM |
| COc1ccc2cc(-c3ccc4c(c3)OCC(C)(C)C4NC(=O)O[C@@H]3CN4CCC3CC4)ccc2c1 (stereo partly drawn) [Example 145, (S)-quinuclidin-3-yl (7-(6-methoxynaphthalen-2-yl)-3,3-dimethylchroman-4-yl)carbamate] | 0.69 nM | 0.08 nM |
| CCOc1ccc(-c2ccc3c(c2)OCC(C)(C)C3NC(=O)O[C@@H]2CN3CCC2CC3)cc1C(F)(F)F (stereo partly drawn) [Example 146, (S)-quinuclidin-3-yl (7-(4-ethoxy-3-(trifluoromethyl)phenyl)-3,3-dimethylchroman-4-yl)carbamate] | 0.98 nM | 2.35 nM |
| CC1(C)COc2cc(-c3coc4ccccc34)ccc2C1NC(=O)O[C@@H]1CN2CCC1CC2 (stereo partly drawn) [Example 147, (S)-quinuclidin-3-yl (7-(benzofuran-3-yl)-3,3-dimethylchroman-4-yl)carbamate] | 0.4 nM | 1 nM |
| CN(C)c1cccc(-c2ccc3c(c2)OCC(C)(C)C3NC(=O)O[C@@H]2CN3CCC2CC3)c1 (stereo partly drawn) [Example 148, (S)-quinuclidin-3-yl (7-(3-(dimethylamino)phenyl)-3,3-dimethylchroman-4-yl)carbamate] | 0.74 nM | 0.03 nM |
| CC1(C)COc2cc(-c3ccc4c(c3)OC(F)(F)O4)ccc2C1NC(=O)O[C@@H]1CN2CCC1CC2 (stereo partly drawn) [Example 149, (S)-quinuclidin-3-yl (7-(2,2-difluorobenzo[d][1,3]dioxol-5-yl)-3,3-dimethylchroman-4-yl)carbamate] | 0.41 nM | 0.03 nM |
| CC1(C)COc2cc(-c3cc(Cl)ccc3Cl)ccc2C1NC(=O)O[C@@H]1CN2CCC1CC2 (stereo partly drawn) [Example 150, (S)-quinuclidin-3-yl (7-(2,5-dichlorophenyl)-3,3-dimethylchroman-4-yl)carbamate] | 0.72 nM | 0.4 nM |
| CC(C)c1cccc(-c2ccc3c(c2)OCC(C)(C)C3NC(=O)O[C@@H]2CN3CCC2CC3)c1 (stereo partly drawn) [Example 151, (S)-quinuclidin-3-yl (7-(3-isopropylphenyl)-3,3-dimethylchroman-4-yl)carbamate] | 0.53 nM | 0.31 nM |
| CC(C)(C)c1cccc(-c2ccc3c(c2)OCC(C)(C)C3NC(=O)O[C@@H]2CN3CCC2CC3)c1 (stereo partly drawn) [Example 152, (S)-quinuclidin-3-yl (7-(3-(tert-butyl)phenyl)-3,3-dimethylchroman-4-yl)carbamate] | 0.91 nM | 0.22 nM |
| COc1ccc(Cl)c(-c2ccc3c(c2)OCC(C)(C)C3NC(=O)O[C@@H]2CN3CCC2CC3)c1 (stereo partly drawn) [Example 153, (S)-quinuclidin-3-yl (7-(2-chloro-5-methoxyphenyl)-3,3-dimethylchroman-4-yl)carbamate] | 0.48 nM | 0.06 nM |
| CC1(C)COc2cc(-c3cccc(-c4ccccc4)c3)ccc2C1NC(=O)O[C@@H]1CN2CCC1CC2 (stereo partly drawn) [Example 154, (S)-quinuclidin-3-yl (7-([1,1′-biphenyl]-3-yl)-3,3-dimethylchroman-4-yl)carbamate] | 0.74 nM | 0.41 nM |
| CC1(C)COc2cc(-c3cncc4ccccc34)ccc2C1NC(=O)O[C@@H]1CN2CCC1CC2 (stereo partly drawn) [Example 155, (S)-quinuclidin-3-yl (7-(isoquinolin-4-yl)-3,3-dimethylchroman-4-yl)carbamate] | 0.6 nM | 0.77 nM |
| CC1(C)COc2cc(-c3ccccc3F)ccc2C1NC(=O)O[C@@H]1CN2CCC1CC2 (stereo partly drawn) [Example 156, (S)-quinuclidin-3-yl (7-(2-fluorophenyl)-3,3-dimethylchroman-4-yl)carbamate] | 0.29 nM | 0.27 nM |
| CC1(C)COc2cc(-c3ccccc3OC(F)(F)F)ccc2C1NC(=O)O[C@@H]1CN2CCC1CC2 (stereo partly drawn) [Example 157, (S)-quinuclidin-3-yl (3,3-dimethyl-7-(2-(trifluoromethoxy)phenyl)chroman-4-yl)carbamate] | 0.48 nM | 0.12 nM |
| CCOc1cccc(-c2ccc3c(c2)OCC(C)(C)C3NC(=O)O[C@@H]2CN3CCC2CC3)c1 (stereo partly drawn) [Example 158, (S)-quinuclidin-3-yl (7-(3-ethoxyphenyl)-3,3-dimethylchroman-4-yl)carbamate] | 0.42 nM | 1.5 nM |
